Data as given in paper PMC6434189, “Peperomin E and its orally bioavailable analog induce oxidative stress-mediated apoptosis of acute myeloid leukemia progenitor cells by targeting thioredoxin reductase” (Redox Biology, 2019).
Read-outs that look alike come from different tables or passages of the source.

Assays:
primary CD34+ AML cells = assay: CCK-8 cell viability assay on primary CD34+ AML cells; format: cell-based, human; conditions: for viability at 6 µM: Homo sapiens, 48 h, CCK-8, read-out: cells viable (average)
Experimental: The mononuclear cells were further enriched for CD34 positive cells using the MACS CD34 MicroBead kit following the manufacturer's protocol. Enriched CD34 cell-purity was measured by flow cytometry-based quantification of cells stained using an anti-CD34-FITC antigen. Isolated CD34^+ cells were pre-incubated in the IMDM-based serum-free media for 1 h before the addition of drugs. PepE was dissolved in DMSO to make a 100 mM stock solution and stored in aliquots at – 20 °C. The 100 mM stock solution was diluted with DMSO to 10 mM and then diluted with PBS to 1 mM before treating the cells at the indicated concentrations. DMAPE and Ara-C were diluted in PBS to 1 mM concentration before use.
(§1) Unless otherwise mentioned, 2 × 10^4 cells were seeded at 96-well plates (Corning, New York, USA) in the IMDM-based serum-free media for 1 h. Then, the cells were incubated with different concentrations of PepE and DMAPE at 37 °C in a 5% CO2 incubator for 48 h. At the end of the treatment, 10 μL CCK-8 solution was added to each well and incubated for an additional 2 h at 37 °C, and the absorbance at 450 nm was measured with a microplate reader (Thermo Scientific, Multiskan GO, Finland). Inhibition ratio (%) was calculated as [(absorbance of control − absorbance of the test sample)/absorbance of control] x 100%.

[1] = Pharmacokinetic study of DMAPE in rats; format: in vivo, Sprague–Dawley rats; conditions: for MRT last: read-out: MRT 0-t; for MRT inf: read-out: MRT 0-∞
Description: The UFLC-MS/MS system consisted of a Prominence™ UFLC system (Shimadzu, Kyoto, Japan) coupled with a QTRAP™ 5500 MS/MS system (Applied Biosystems/MDS SCIEX, Foster City, CA, USA) and controlled by the Analyst 1.5.2 software. MS‐grade methanol and acetonitrile were purchased from Merck (Darmstadt, Germany). Ultra‐pure water was generated using a MilliQ™ direct water purification system (Merck–Millipore, Billerica, MA, USA). The mass spectra and chromatographic conditions, method validations, standard and sample preparation for simultaneous determination of DMAPE and its parent drug PepE in rat plasma are provided in the Additional method in Supplementary Materials.
Male Sprague–Dawley rats weighing 200 ± 20 g were supplied by the Qinglongshan Experimental Animal Breeding Company (Nanjing, China). The experiment protocol was approved by the Animal Ethics Committee of Nanjing University of Chinese Medicine (Nanjing, China). The rats were housed under controlled environmental conditions (temperature 25 ± 2 °C, relative humidity 50 ± 10%) with free access to standard laboratory food and water. Before drug administration, the rats were randomly divided into two groups (eight rats per group) and fasted for 12 h with access to water. DMAPE phosphate salt aqueous solution was i. g. (50 mg/kg) or i. v. (50 mg/kg) administrated. Blood samples were collected from the tail vein into heparinized Eppendorf tubes using lithium heparin‐containing microvettes. The plasma was obtained by centrifugation of the blood at 5000 rpm for 10 min and then frozen at −20 °C until analysis. Pharmacokinetic parameters were calculated using the DAS 2.1.1 software (Pharmacological Society of China, China) using non-compartmental analysis.

KG-1a CD34+ cells = assay: Intracellular ROS measurement (DCFH-DA / DHE); format: cell-based, human; conditions: 6 μM; blocked by NAC pretreatment
Experimental: KG-1a CD34^+ cells and other sorted primary APCs (5 × 10^5) were plated in FBS-free IMDM medium in 12-well plates (Corning) and were treated with 5 μM of Ara-C and 6 μM PepE or DMAPE in the presence or absence of 5 mM NAC for 2 h. The ROS indicator DCFH-DA (10 μM) or DHE (10 μM) in fresh FBS-free medium was added to each well, and further incubated in the dark for 30 min at 37 °C. The cells were visualized and photographed under an Olympus inverted fluorescence microscope IX-73 (Tokyo, Japan) with Metamorph software (Molecular Devices, Downingtown, PA, USA).

[2] = Stability of the analytes in rat plasma (UFLC-MS/MS); format: in vitro ADME; conditions: for Freeze-thaw 3 cycles RE (%) / Store at -20℃ for 24h RE (%) / Store at auto-sampler RE (%): rat plasma, n=6; for stability in rat plasma samples: −20 °C for 15 days, three freeze/thaw cycles, room temperature 6 h, autosampler 4 °C 12 h
[3] = system: Trx1 in KG-1a CD34+ cells; assay: Trx1 redox state assay (PAO-Sepharose pull down); format: cell-based, human; conditions: 5 μM, 24 h
Experimental: The redox state of Trx1 was determined using Liu's method. Phenylarsine oxide (PAO)-Sepharose was prepared by immobilization of PAO on Sepharose 4B according to Liu's report. The reduced form was pulled down on the Sepharose, while the oxidized form remained in the solution. Briefly, the KG-1a CD34^+ cells were treated with 5 μM PepE/DMAPE or vehicle control (DMSO) for 24 h. The cellular proteins were extracted by RIPA buffer and quantified by the Bradford method. The fully oxidized and reduced controls were prepared by incubating the non-treated cell lysate with diamide (2 mM) and TCEP (2 mM) for 1 h at 37 °C, respectively. The cell lysates were then incubated with PAO-sepharose on a rotating shaker for 1 h at room temperature. The supernatant was collected and the PAO-sepharose was washed with Tris-EDTA buffer. Then, the reduced Trx1 was eluted using Tris-EDTA buffer containing DPMS (10 mM). All samples were separated on SDS-PAGE and electrotransferred to PVDF membrane for western blot analyses. The bands were analyzed using Gel-pro 32 software.

[4] = system: TrxR1 overexpressed KG-1a cells (ACTV cells); assay: CCK-8 viability in TrxR1 overexpressed KG-1a cells; format: cell-based, human; conditions: 48 h
Experimental: as §1
For TrxR1 overexpression experiment, KG-1a CD34^+ cells were seeded in a six-well plate at 2.5 × 10^5/well in antibiotic-free IMDM medium for 24 h, then cells were transfected with TrxR1 CRISPR activation plasmids (control CRISPR plasmids as a negative control) according to the manufacturer's instructions. Briefly, for each transfection, 0.15 ml of the Plasmid DNA solution (containing 3 μg of TrxR1 activation or control DNA plasmids) and 0.15 ml of diluted UltraCruz transfection reagent (Santa Cruz Biotech, sc-395739) were gently mixed and added to the cells. […] The activation efficiencies were evaluated by western blot and RT-qPCR analyses.

[5] = male, Sprague-Dawley, po, rat plasma, DMAPE 50 mg/kg intragastric
[6] = male, Sprague-Dawley, rat, plasma, po, 50 mg/kg, rat plasma, DMAPE 50 mg/kg intragastric
[7] = male, Sprague-Dawley, rat plasma, DMAPE 50 mg/kg intravenous

| SMILES | viability at 6 µM (primary CD34+ AML cells) [%] | AUC(0-inf) [1, 5] [ng·h/mL] | AUC(0-t) [1, 5] [ng·h/mL] | Cmax [1, 5] [ng/mL] | half-life [1, 5] [h] | MRT last [1, 5] [h] | MRT inf [1, 5] [h] | Tmax [1, 6] [h] | AUC(0-inf) [1, 7] [ng·h/mL] | AUC(0-t) [1, 7] [ng·h/mL] | Cmax [1, 7] [ng/mL] | clearance [1, 7] [mL/min/kg] | half-life [1, 7] [h] | MRT last [1, 7] [h] | MRT inf [1, 7] [h] | ROS level by DCFH-DA staining (KG-1a CD34+ cells) | Freeze-thaw 3 cycles RE (%) ([2]; 5 ng/ml) | Store at -20℃ for 24h RE (%) ([2]; 5 ng/ml) | Store at auto-sampler RE (%) ([2]; 5 ng/ml) | Freeze-thaw 3 cycles RE (%) ([2]; 200 ng/ml) | other results |
| --- | --- | --- | --- | --- | --- | --- | --- | --- | --- | --- | --- | --- | --- | --- | --- | --- | --- | --- | --- | --- | --- |
| COc1cc(C(c2cc(OC)c3c(c2)OCO3)[C@@H]2COC(=O)[C@H]2CN(C)CCO)cc2c1OCO2 [DMAPE, (2S,3S)-6-Methyl (hydroxyethyl) amino-2,6-dihydropeperomin E] | 28.9 | 25400 ± 8950 | 25200 ± 8960 | 5760 ± 2510 | 4.26 ± 1.63 | 4.9 ± 0.42 | 5.29 ± 0.32 | ≤ 0.85 | 30000 ± 7010 | 29900 ± 7070 | 21700 ± 3590 | 29 | 4.33 ± 1.77 | 2.61 ± 0.86 | 2.73 ± 0.85 | burst of ROS | -13.1 | -11.0 | -11.3 | 11.2 | bioavailability ([1]; male, Sprague-Dawley, rat, plasma, oral, 50 mg/kg, rat, DMAPE 50 mg/kg intragastric vs intravenous, read-out: Bioavailability, F): 85%; CL ([1]; rat plasma, DMAPE 50 mg/kg intragastric): 35.7 ± 10.2 mL/min/kg; Store at -20℃ for 24h RE (%) ([2]; 200 ng/ml): 3.0%; Store at auto-sampler RE (%) ([2]; 200 ng/ml): -1.3%; Freeze-thaw 3 cycles RE (%) ([2]; 1000 ng/ml): -5.1%; Store at -20℃ for 24h RE (%) ([2]; 1000 ng/ml): 3.3%; Store at auto-sampler RE (%) ([2]; 1000 ng/ml): -3.7%; stability in rat plasma samples [2]: stable; oxidized form of Trx [3]: significantly increased; toxicity against ACTV cells vs CTRL ACTV cells [4]: significant lower toxicity |
| C=C1C(=O)OC[C@H]1C(c1cc(OC)c2c(c1)OCO2)c1cc(OC)c2c(c1)OCO2 [PepE, Peperomin E] | 24 | 10700 ± 2930 | 10600 ± 2930 | 2300 ± 270 | 7.02 ± 1.3 | 7.32 ± 0.82 | 7.75 ± 0.74 | ≤ 0.85 | 11400 ± 3520 | 11300 ± 3520 | 8630 ± 2040 | 77.5 | 8.89 ± 4.8 | 3.91 ± 1.4 | 4.64 ± 1.88 | burst of ROS | -11.5 | 4.4 | -10.1 | -13.2 | concentration range inducing apoptosis of human primary CD34+ AML cells (primary CD34+ AML cells): 4 to 6 µM; Tmax ([1]; male, Sprague-Dawley, rat, plasma, iv, 50 mg/kg, rat plasma, DMAPE 50 mg/kg intravenous): 0.21 ± 0.17 h; Store at -20℃ for 24h RE (%) ([2]; 200 ng/ml): 11.9%; Store at auto-sampler RE (%) ([2]; 200 ng/ml): -10.5%; Freeze-thaw 3 cycles RE (%) ([2]; 1000 ng/ml): -3.6%; Store at -20℃ for 24h RE (%) ([2]; 1000 ng/ml): 1.7%; Store at auto-sampler RE (%) ([2]; 1000 ng/ml): -7.2%; stability in rat plasma samples [2]: stable; oxidized form of Trx [3]: significantly increased; toxicity against ACTV cells vs CTRL ACTV cells [4]: significant lower toxicity |
